In patent US11352604B2, “Method of making cardiomyocytes from human pluripotent cells” (Wisconsin Alumni Research Foundation, priority 2016, dated 2022):

Columns and labels:
HCN4 channel = biological target: T1, HCN4 channel (Homo sapiens, UniProt Q9Y3Q4); experiment: Spontaneous beat rate of cardiomyocyte sheets before and after ivrabradine; format: cell-based
T1 construct: endogenous in cells; host or cells: replated progenitor-derived cardiomyocyte sheets, 19-9-11 iPS cell line
T1 sequence (Q9Y3Q4 1-1203): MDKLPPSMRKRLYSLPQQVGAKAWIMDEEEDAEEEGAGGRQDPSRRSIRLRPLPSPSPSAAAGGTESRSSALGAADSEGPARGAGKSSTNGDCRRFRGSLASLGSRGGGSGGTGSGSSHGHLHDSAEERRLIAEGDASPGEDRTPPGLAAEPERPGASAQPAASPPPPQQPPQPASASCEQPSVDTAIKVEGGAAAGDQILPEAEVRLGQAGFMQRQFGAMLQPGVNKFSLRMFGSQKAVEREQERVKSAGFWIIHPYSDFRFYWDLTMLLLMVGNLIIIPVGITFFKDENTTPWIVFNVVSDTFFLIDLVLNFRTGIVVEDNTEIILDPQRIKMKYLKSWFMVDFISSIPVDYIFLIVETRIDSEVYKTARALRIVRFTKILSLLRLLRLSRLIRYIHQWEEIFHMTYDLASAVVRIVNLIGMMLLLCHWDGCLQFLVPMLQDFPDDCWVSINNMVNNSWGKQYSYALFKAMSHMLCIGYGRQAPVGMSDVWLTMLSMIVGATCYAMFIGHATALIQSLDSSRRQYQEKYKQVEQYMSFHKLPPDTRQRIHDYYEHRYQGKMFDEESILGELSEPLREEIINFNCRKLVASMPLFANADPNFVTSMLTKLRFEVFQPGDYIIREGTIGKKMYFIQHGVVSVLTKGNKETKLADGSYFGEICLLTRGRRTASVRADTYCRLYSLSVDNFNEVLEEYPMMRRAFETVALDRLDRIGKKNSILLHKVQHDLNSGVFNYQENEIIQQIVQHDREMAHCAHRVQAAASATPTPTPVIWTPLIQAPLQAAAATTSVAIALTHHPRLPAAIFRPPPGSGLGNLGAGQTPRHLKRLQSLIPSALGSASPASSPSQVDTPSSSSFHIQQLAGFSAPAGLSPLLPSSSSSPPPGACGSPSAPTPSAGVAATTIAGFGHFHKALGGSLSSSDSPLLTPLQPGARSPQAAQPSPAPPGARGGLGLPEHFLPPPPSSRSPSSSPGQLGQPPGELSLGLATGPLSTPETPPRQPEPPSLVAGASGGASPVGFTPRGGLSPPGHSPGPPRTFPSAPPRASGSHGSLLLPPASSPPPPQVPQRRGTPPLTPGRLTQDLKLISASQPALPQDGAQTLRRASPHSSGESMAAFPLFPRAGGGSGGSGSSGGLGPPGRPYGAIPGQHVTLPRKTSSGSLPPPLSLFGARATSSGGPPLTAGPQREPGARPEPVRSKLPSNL
Experimental: (§1) For quantification of spatial regularity and graphical presentation of time averaged beating in microtissue from the H9-cTnT-GFP (FIGS. 9A, C) or 19-9-11 (FIG. 9B) cell lines, .avi video files of low-powered (2.5× magnification) fields were recorded at a resolution of 1268×720 and a frame rate of 20/second. These videos were exported into a series of sequential .tiff files using Adobe Premiere, and then analyzed in MATLAB using previously described coding algorithms (Huebsch et al., 2015). Calculations of beat rate (before and after ivrabradine, […] for 2 hours, Sigma) were performed manually in the 19-9-11 cell line and multifocal patterns in untreated progenitor-derived sheets were represented as the average rate of beating for all foci present in a field.

[1] = tested on: day 5 cardiac progenitor cells; experiment: Propidium iodide cell cycle flow cytometry; format: cell-based, human; details: DAPT with pI:C, day 5
Experimental: Propidium iodide staining was performed on ethanol-fixed cells of the 19-9-11 iPS cell line with a low flow rate and linear mode fluorescence according to a previously published protocol (Darzynkiewicz and Juan, 2001).

[2] = tested on: hPSC-derived cardiac progenitors and hPSC-CMs; experiment: RT-qPCR gene expression in progenitors or cardiomyocytes; format: cell-based, human
Experimental: Frozen cell pellets from progenitors or cardiomyocytes in the 19-9-11 iPS cell line were thawed and RNA isolated using RNeasy spin columns with on-column DNase treatment according to the manufacturer's instructions (Qiagen). 500 ng of isolated RNA was used as template for reverse transcription using Biorad iScript RT supermix according to the manufacturer's instructions. 2.5 ng of derived cDNA was then used as template in qPCR with Taqman® primers bearing FAM-MGB dyes for genes of interest in a 20 μL reaction with Taqman® universal PCR supermix and the manufacturer's recommended cycling conditions (Thermo Fisher Scientific).

hPSC-CMs [3] = experiment: Optical action potential measurement (RH237); format: cell-based, human; details: DAPT day 3-16
Experimental: After hPSC-CM dissociation, day 30 to 60 lactate-purified hPSC-CMs from the 19-9-11 cell line were plated as 80 μL drops on areas of cover glass previously coated in drops of Synthemax® working solution of 80 μL (Corning) in the K20/2 dissociation and replating technique described above. After at least two days in K2 medium, the fast-equilibrating voltage-sensitive dye RH237 at 1 μM was added and live cells imaged in the cover glass in a Leica confocal microscope. Video files of individual cells were taken and filtered with the 50th FIR filter at a cutoff frequency of 128 Hz. The resulting action potentials were analyzed for rise time and voltage velocity in MATLAB. Individual cells were considered as replicates for statistical purposes and came from 4 cell preparations.

[4] = tested on: hPSC-CM sheets from replated progenitors; experiment: Video edge detection / beating analysis of cardiomyocyte sheets; format: cell-based, human; details: DAPT present day3-day20
Experimental: as §1

hPSC-CMs [5] = experiment: Cardiomyocyte yield from dissociated and replated progenitors; format: cell-based, human; details: DAPT
Experimental: For dissociation of day 5 cells (for destructive analyses or live cell replating experiments), progenitors were dissociated with Versene (Thermo Fisher Scientific) for 10 minutes at 37° C., pipetted up and down 40 times, and then neutralized 1:1 v/v versene solution with “K20” medium (DMEM/F12 with 1×NEAA, 1× Glutamine, 0.1 mM (3-mercaptoethanol, and 20% Knockout Serum Replacer by volume, all Thermo Fisher Scientific). For destructive analyses, pellets were made by centrifugation at 1.1×1000 g for 5 minutes, aspiration of medium supernatant, snap-freezing in liquid nitrogen, and kept at −80° C. for until pellet lysis for DNA, protein, or RNA isolation.
For replating of progenitors and microtissue formation, after neutralization and cell counting, 0.8 million day-5 progenitors per well were spun down at 100×g as above and resuspended and plated in 1 mL K20 with 10 μM Y-27632 ROCK-inhibitor (Tocris) into Synthemax® II-SC coated 12 well plates (Corning). Media was then changed daily in 2 mL of “K2” (same formulation as K20 above, but with just 2% Knockout Serum Replacer), and changed daily. Differentiating hPSC-CMs from replated progenitors in this protocol beat by day 8 to 12.

hPSC-CMs [6] = experiment: Cardiomyocyte yield and purity in GiWi differentiation; format: cell-based, human; details: DAPT early (day 3-5 or 3-7) and extended (day 3-10 or 3-16)
Experimental: To differentiate cardiomyocytes from hPSCs, the small molecule temporal modulation of the Wnt pathway (GiWi) monolayer protocol was used essentially as previously described (Lian et al., 2012). Human embryonic or induced pluripotent stem cells were dissociated with Versene (Thermo Fisher Scientific) for 6 minutes at 37° C., pipetted up and down 40 times, counted with a hemocytometer, spun down at 100×g for 5 minutes, and resuspended and seeded for differentiation at 1.5 million cells per well in 6 well plates or 0.4 million per well in 12 well plates in mTeSR® on stem-cell verified Matrigel® (WiCell) containing 10 μM Y-27632 ROCK-inhibitor (Tocris). After four days in mTeSR® (WiCell), at which point cells grew to 100 percent confluence, medium was switched to RPMI supplemented with B27 supplement not containing insulin (Thermo Fisher Scientific) and containing 12 μM of the Wnt agonist CHIR99021 (Tocris) for exactly 24 hours. Media was then changed to RPMI supplemented with B27 not containing insulin for exactly 48 hours. Then medium was then switched at day 3 to RPMI supplemented with B27 not containing insulin and containing 5 μM IWP2 (Tocris). At day 5, media was switched to RPMI supplemented with B27 not containing insulin for two days. At day 7 and every three days afterward, medium was replaced with RPMI supplemented with B27 containing insulin (Thermo Fisher Scientific). […]

cTnT isoforms = experiment: Top-down mass spectrometry of cTnT isoforms (adult to fetal AUC ratio); format: cell-based, human; details: DAPT day 3-16
Experimental: Freshly isolated CMs from the H9-cTnT-GFP (FIG. 1) or 19-9-11 (FIG. 2) hPSC cell lines were washed with Ca^2+-free DPBS and centrifuged at 1,100 g for 5 minutes (min) and the wash solvent was removed. The cells were first homogenized in 50 μl HEPES solution (25 mM HEPES, pH 7.4, 2.5 mM EDTA, 100 mM NaF, 1 mM DTT, 10 mM L-methionine, 1 mM PMSF, 1 mM Na3VO4, protease inhibitor (Abcam) and phosphatase inhibitors). The homogenates were centrifuged at 17,000 g for 20 min and the HEPES extract containing predominately cytosolic proteins was collected. The remaining pellets were homogenized in 40 μl trifluoroacetic acid (TFA) solution (1% TFA, 5 mM tris(2-carboxyethyl)phosphine, 5 mM L-methionine) and centrifuged at 17,000 g for 20 min. The TFA extract containing predominantly the sarcomeric proteins was collected. Bradford protein assays were performed to determine the protein concentration. The sarcomeric protein-enriched extracts were diluted to 100 ng/μl for Liquid chromatography (LC)-MS analysis.
500 ng of each sarcomeric protein-enriched extract was injected to a home-packed reverse phase chromatography (RPC) column (PLRP-S, 10 μm particle size, 1000 A pore size, 500 μm inner diameter, 25 cm long), and the proteins were separated with a gradient of 5-95% mobile phase B (0.1% formic acid in 50:50 acetonitrile:ethanol) (mobile phase A: 0.1% formic acid in H2O) at a constant flowrate of 12 μl/min. The eluting proteins were analyzed by a high-resolution quadrupole-time of flight (q-TOF) mass spectrometer (Impact II, Bruker Daltonics) via electrospray ionization. The mass spectra were collected at a scan rate of 0.5 Hz for all samples being analyzed. Analyses of top-down mass spectra were performed using the vender-specific software DataAnalysis 3.2 (Bruker Daltonics).
Quantification of the sarcomeric protein isoforms was performed as previously described. […] The area under curve (AUC) of the EIC of a specific protein isoform represents the abundance of the selected protein isoform. […] Relative quantification of protein isoform expression was measured by the ratio of the AUCs.

NF-κB activation = details: cited from earlier work
H9-TnT-GFP hPSC-CMs = experiment: cTnT-GFP reporter imaging of hPSC-CMs after NFκB inhibition; format: cell-based, human; details: QNZ day 3-5 concurrent with pI:C
Experimental: Antibodies: NFKappaB (Abcam) and phosphorylated IKappaB (Abcam). Antibodies were used at a dilution of 1:1000. NF-κB inhibitor: 40 nM QNZ (Selleckchem).

With `COc1cc2c(cc1OC)CC(=O)N(CCCN(C)C[C@H]1Cc3cc(OC)c(OC)cc31)CC2` [ivrabradine] as the molecule, how does the “effect on spontaneous contractions” value (HCN4 channel; cardiomyocyte sheets from primed progenitors, 5 μm for 2 hours) read?
Its value is “blocked the spontaneous contractions”.

What about the “effect on beat rate” value (HCN4 channel; cardiomyocyte sheets from untreated progenitors, 5 μM for 2 hours) of the same molecule?
Its value is “little effect”.

For `C[C@H](NC(=O)Cc1cc(F)cc(F)c1)C(=O)N[C@H](C(=O)OC(C)(C)C)c1ccccc1` [DAPT], which “effect on increased cell cycle activity of primed progenitors” value [1] is on record?
Its value is “blocked the increased cell cycle activity”.

What about the “effect on pI:C-increased expression of cardiomyocyte maturation genes (αMHC, cTnI, cardiac actin, ATP5a, RYR2, SERCA)” value ([2]; DAPT day 3-5 or day 3-16) of the same molecule?
Its value is “reversed the increased expression”.

What about the “effect on pI:C downregulation of cardiac fibroblast genes” value ([2]; Notch inhibition (DAPT) with pI:C) of the same molecule?
Its value is “accentuated”.

And the “effect on increase in optical upstroke velocity (decreased rise time) from primed progenitors” value (hPSC-CMs [3])?
The value was “blocked only with DAPT treatment from day 3-16”.

And the “contraction pattern of hPSC-CM sheets from pI:C-primed progenitors” value [4]?
Its value is “multifocal and disorganized without forming waves of contraction”.

And the “effect on increased yield from replated primed progenitors” value (hPSC-CMs [5])?
Its value is “blocked this increased yield”.

What about the “effect on pI:C-increased hPSC-CM yield” value (hPSC-CMs [6]) of the same molecule?
The value was “blocked pI:C's effect on hPSC-CM yield”.

What about the “effect on protein isoform change toward adult cTnT 6 and 11 caused by pI:C” value (cTnT isoforms) of the same molecule?
Its value is “abrogated”.

For `Nc1ccc2ncnc(NCCc3ccc(Oc4ccccc4)cc3)c2c1` [QNZ], which “effect on pI:C-increased maturation gene expression” value ([2]; day 20 pPSC-CM, QNZ with pI:C) is on record?
The value was “reversed”.

What about the “inhibitory activity toward both NF-κB activation and TNF-α production” value (NF-κB activation) of the same molecule?
The value was “potent inhibitory activity”.

And the “effect on formation of TnT-GFP positive cardiomyocyte collections after pIC treatment” value (H9-TnT-GFP hPSC-CMs)?
The value was “blocked the generation of large collections of TnT-GFP positive cardiomyocytes”.
